This note sets out measurements from PubChem BioAssay AID212 (DTP/NCI, 2004).

This test deals with BDF1 mice, colon carcinoma 38 sc, T/C %. Put plainly: NCI In Vivo Anticancer Drug Screen. Data for tumor model Colon Carcinoma 38 (subcutaneous) in B6D2F1 (BDF1) mice. Particulars: endpoint: median tumor weight (est.), higher = larger tumour. The procedure, abridged:
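Compound antitumor activity was assessed in mice carrying transplantable tumors. Survival or tumor size was recorded, and each value is the treated-group measurement divided by that of the vehicle-treated control group.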

[1] abbreviates: dose: 12.5 mg/kg/injection, schedule: Q07DX002 (ip), vehicle: saline.
Where [2] appears, read: dose: 25.0 mg/kg/injection, schedule: Q07DX002 (ip), vehicle: saline.
[3] abbreviates: dose: 100.0 mg/kg/injection, schedule: Q07DX002 (ip), vehicle: saline.
Where [4] appears, read: dose: 400.0 mg/kg/injection, schedule: Q07DX002 (ip), vehicle: saline with Tween-80.

“And” between values parts separate entries of the source, which are not always exact repeats. Equal values may be shown once. Inconclusive results are not listed.

Regarding `CC1=C(C)C(=O)O[C@@H]([C@](C)(O)[C@]2(O)CC[C@@]3(O)[C@@H]4C[C@H]5O[C@]56CC=CC(=O)[C@]6(C)[C@H]4CC[C@]23C)C1`, the T/C was 110 % of control under setting [1]; 96 % of control under setting [2]; 162 % of control (dose: 28.1 mg/kg/injection, schedule: Q07DX002 (ip), vehicle: saline); 90 % of control (dose: 56.2 mg/kg/injection, schedule: Q07DX002 (ip), vehicle: saline); 117 % of control under setting [3]; 160 % of control (dose: 112.5 mg/kg/injection, schedule: Q07DX002 (ip), vehicle: saline). The T/C was 83 % of control (dose: 200.0 mg/kg/injection, schedule: Q07DX002 (ip), vehicle: saline) and 70 % of control (dose: 225.0 mg/kg/injection, schedule: Q07DX002 (ip), vehicle: saline).

On to `CCCC(=O)O.CCCC(=O)O.CCCC(=O)O.CCCC(=O)O.[Rh].[Rh]`, for which the T/C reads like this: (dose: 0.25 mg/kg/injection, schedule: Q07DX002 (ip), vehicle: saline + alcohol) 87 % of control; (dose: 0.5 mg/kg/injection, schedule: Q07DX002 (ip), vehicle: saline + alcohol) 76 % of control; (dose: 1.0 mg/kg/injection, schedule: Q07DX002 (ip), vehicle: saline + alcohol) 91 % of control.

In the case of `CCc1ccccc1N1CCN(C(=O)c2cc(OC)c(OC)c(OC)c2)CC1`, the T/C (dose: 12.5 mg/kg/injection, schedule: Q07DX003 (ip), vehicle: Klucel (hydroxypropylcellulose) (HPC)) is 92 % of control; the T/C (dose: 25.0 mg/kg/injection, schedule: Q07DX003 (ip), vehicle: Klucel (hydroxypropylcellulose) (HPC)) is 96 % of control; the T/C (dose: 50.0 mg/kg/injection, schedule: Q07DX003 (ip), vehicle: Klucel (hydroxypropylcellulose) (HPC)) was 47 % of control; the T/C (dose: 100.0 mg/kg/injection, schedule: Q07DX003 (ip), vehicle: Klucel (hydroxypropylcellulose) (HPC)) is 64 % of control; the T/C (dose: 200.0 mg/kg/injection, schedule: Q07DX003 (ip), vehicle: Klucel (hydroxypropylcellulose) (HPC)) was 54 % of control; the T/C (dose: 400.0 mg/kg/injection, schedule: Q07DX003 (ip), vehicle: Klucel (hydroxypropylcellulose) (HPC)) was 13 % of control.

Turning to `OCCN1CCN(CC/C=C2/c3ccccc3Sc3ccc(Cl)cc32)CC1`, the T/C by setting is: (dose: 3.12 mg/kg/injection, schedule: Q07DX002 (ip), vehicle: saline) 83 % of control; (dose: 6.25 mg/kg/injection, schedule: Q07DX002 (ip), vehicle: saline) 39 % of control; under setting [1], 112 % of control; under setting [2], 67 % of control; (dose: 50.0 mg/kg/injection, schedule: Q07DX002 (ip), vehicle: saline) 110 % of control; under setting [3], 99 % of control.

Consider `COc1cc2c[n+](C)c3c4cc5c(cc4ccc3c2cc1OC)OCO5`, for which the T/C was 110 % of control (dose: 20.0 mg/kg/injection, schedule: Q07DX003 (ip), vehicle: saline with Tween-80) and 97 % of control (dose: 40.0 mg/kg/injection, schedule: Q07DX003 (ip), vehicle: saline with Tween-80).

Consider `N#C[Se-].c1ccc([Te+](c2ccccc2)c2ccccc2)cc1`, for which the T/C (dose: 3.12 mg/kg/injection, schedule: Q07DX002 (ip), vehicle: Klucel (hydroxypropylcellulose) (HPC)) is 181 % of control; the T/C (dose: 6.25 mg/kg/injection, schedule: Q07DX002 (ip), vehicle: Klucel (hydroxypropylcellulose) (HPC)) is 80 % of control; the T/C (dose: 12.5 mg/kg/injection, schedule: Q07DX002 (ip), vehicle: Klucel (hydroxypropylcellulose) (HPC)) was 65 % of control; the T/C (dose: 25.0 mg/kg/injection, schedule: Q07DX002 (ip), vehicle: Klucel (hydroxypropylcellulose) (HPC)) was 186 % of control.

`COC1=C(Br)[C@H](O)[C@](O)(CC#N)C=C1Br`: the T/C is, setting by setting: (dose: 8.75 mg/kg/injection, schedule: Q07DX002 (ip), vehicle: Klucel (hydroxypropylcellulose) (HPC)) 52 % of control; (dose: 17.5 mg/kg/injection, schedule: Q07DX002 (ip), vehicle: Klucel (hydroxypropylcellulose) (HPC)) 80 % of control; (dose: 35.0 mg/kg/injection, schedule: Q07DX002 (ip), vehicle: Klucel (hydroxypropylcellulose) (HPC)) 49 % of control; (dose: 70.0 mg/kg/injection, schedule: Q07DX002 (ip), vehicle: Klucel (hydroxypropylcellulose) (HPC)) 105 % of control; (dose: 140.0 mg/kg/injection, schedule: Q07DX002 (ip), vehicle: Klucel (hydroxypropylcellulose) (HPC)) 70 % of control; (dose: 280.0 mg/kg/injection, schedule: Q07DX002 (ip), vehicle: Klucel (hydroxypropylcellulose) (HPC)) 56 % of control.

As for `O=c1[nH]cnc2c1ccn2C1OC(CO)C(O)C1O` (stereo unspecified), the T/C is 88 % of control (dose: 1.5 mg/kg/injection, schedule: Q07DX002 (ip), vehicle: saline); 118 % of control (dose: 3.0 mg/kg/injection, schedule: Q07DX002 (ip), vehicle: saline); 100 % of control (dose: 6.0 mg/kg/injection, schedule: Q07DX002 (ip), vehicle: saline); 86 % of control (dose: 12.0 mg/kg/injection, schedule: Q07DX002 (ip), vehicle: saline); 63 % of control (dose: 24.0 mg/kg/injection, schedule: Q07DX002 (ip), vehicle: saline).

As for `CC1CC2OC2/C=C\C=C\C(=O)Cc2c(Cl)c(O)cc(O)c2C(=O)O1` (stereo unspecified), the T/C is, setting by setting: (dose: 30.0 mg/kg/injection, schedule: Q07DX002 (ip), vehicle: Klucel (hydroxypropylcellulose) (HPC)) 72 % of control; (dose: 60.0 mg/kg/injection, schedule: Q07DX002 (ip), vehicle: Klucel (hydroxypropylcellulose) (HPC)) 74 % of control; (dose: 120.0 mg/kg/injection, schedule: Q07DX002 (ip), vehicle: Klucel (hydroxypropylcellulose) (HPC)) 105 % of control.

Regarding `CCNC(=O)[B-][N+](C)(C)C`, the T/C is 116 % of control (dose: 100.0 mg/kg/injection, schedule: Q07DX002 (ip), vehicle: Klucel (hydroxypropylcellulose) (HPC)); 67 % of control (dose: 200.0 mg/kg/injection, schedule: Q07DX002 (ip), vehicle: Klucel (hydroxypropylcellulose) (HPC)); 113 % of control and 96 % of control (dose: 400.0 mg/kg/injection, schedule: Q07DX002 (ip), vehicle: Klucel (hydroxypropylcellulose) (HPC)).

As for `C/C=C/C=C1/OC(C)=C(C(C)=O)C1=O`, the T/C reads like this: (dose: 25.0 mg/kg/injection, schedule: Q07DX002 (ip), vehicle: saline with Tween-80) 59 % of control and 84 % of control; (dose: 200.0 mg/kg/injection, schedule: Q07DX002 (ip), vehicle: saline with Tween-80) 54 % of control and 57 % of control and 69 % of control; under setting [4], 37 % of control and 62 % of control; (dose: 800.0 mg/kg/injection, schedule: Q07DX002 (ip), vehicle: saline with Tween-80) 100 % of control.

With `CC(=O)Oc1c[nH]c(=O)[nH]c1=O`, the T/C was 107 % of control (dose: 50.0 mg/kg/injection, schedule: Q07DX002 (ip), vehicle: distilled water + Tween-80); 108 % of control and 121 % of control (dose: 100.0 mg/kg/injection, schedule: Q07DX002 (ip), vehicle: distilled water + Tween-80); 124 % of control (dose: 400.0 mg/kg/injection, schedule: Q07DX002 (ip), vehicle: distilled water + Tween-80); 121 % of control and 102 % of control (dose: 800.0 mg/kg/injection, schedule: Q07DX002 (ip), vehicle: distilled water + Tween-80).

For `CCN1/C(=C/C=C/C=C\C=C\c2sc3ccc4ccccc4c3[n+]2CC)Sc2ccc3ccccc3c21`, the T/C runs as follows: (dose: 2.5 mg/kg/injection, schedule: Q07DX002 (ip), vehicle: saline with Tween-80) 105 % of control; (dose: 5.0 mg/kg/injection, schedule: Q07DX002 (ip), vehicle: saline with Tween-80) 89 % of control; (dose: 10.0 mg/kg/injection, schedule: Q07DX002 (ip), vehicle: saline with Tween-80) 69 % of control; (dose: 20.0 mg/kg/injection, schedule: Q07DX002 (ip), vehicle: saline with Tween-80) 76 % of control.

Turning to `O=CC=O`, the T/C is 72 % of control and 86 % of control (dose: 50.0 mg/kg/injection, schedule: Q07DX002 (ip), vehicle: saline with Tween-80); 75 % of control and 77 % of control (dose: 100.0 mg/kg/injection, schedule: Q07DX002 (ip), vehicle: saline with Tween-80); 80 % of control and 95 % of control under setting [4].
